EC50 and Activity data for 4 molecules are collected here from ChEMBL document CHEMBL1148180, “The isolation and structural elucidation of four novel triterpene lactones, pseudolarolides A, B, C, and D, from Pseudolarix kaempferi” (J Nat Prod, 1993).

The subject of one assay is TE-671. The assay can be described thus: Cytotoxicity against human TE671 cells. In kind it is functional, cell-based.
The test system of a further assay is HCT-8. The assay is described as follows: Cytotoxicity against human HCT8 cells. In kind it is functional, cell-based.
For a further assay, the system named is P388. The assay can be described thus: Cytotoxicity against mouse P388 cells. In kind it is functional, cell-based.
The next assay relates to KB. The assay can be described thus: Cytotoxicity against human KB cells. In kind it is functional, cell-based.
The next assay deals with A549. The assay can be described thus: Cytotoxicity against human A549 cells. In kind it is functional, cell-based.
The next assay has as its system Human alphaherpesvirus 2. The assay can be described thus: Antiviral activity against HSV2 in african green monkey Vero cells assessed as inhibition of viral plaque formation. In kind it is functional, organism-based.

As a reminder, the EC50 is the concentration that produces a half-maximal response.

SMILES strings stand for the structures. ≈ marks a conversion by molar mass, not a printed value. Calls of active or inactive are those of the source. The rule behind the calls is not given here.

Take `COC(=O)CC[C@]12C[C@]13CC[C@]1(C)[C@H]4[C@H](C)C[C@]5(C[C@@H](C)C(=O)O5)O[C@@H]4C[C@@]1(C)[C@@H]3CC[C@H]2C(C)(C)O` [PSEUDOLAROLIDE C]: the EC50 result with TE-671, in the assay on HCT-8 (hct-8), with P388 (p388), with KB (kb) and with A549 (a549) was “Not Active” each time.
Consider `C[C@@H]1C[C@]2(C[C@@H](C)[C@H]3[C@@H](C[C@@]4(C)[C@@H]5CC[C@H]6C(C)(C)OC(=O)CC[C@@]67C[C@@]57CC[C@]34C)O2)OC1=O` [PSEUDOLAROLIDE D], for which the EC50 entry in the assay with TE-671, in the assay on HCT-8 (hct-8), with P388 (p388), with KB (kb) and with A549 (a549) was “Not Active” each time.
In the case of `C[C@@H]1C[C@]2(C[C@@H](C)[C@H]3[C@@H](C[C@@]4(C)[C@@H]5CC[C@H]6C(C)(C)C(=O)CC[C@@]67C[C@@]57CC[C@]34C)O2)OC1=O` [PSEUDOLAROLIDE A], the EC50 result with TE-671, in the assay on HCT-8 (hct-8), in the assay with P388 (p388), in the assay with KB (kb) and in the assay on A549 (a549) was “Not Active” each time. Further, the outcome in the assay with Human alphaherpesvirus 2 was Active.
Take `CC1=C[C@]2(C[C@@H](C)[C@H]3[C@@H](C[C@@]4(C)[C@@H]5CC[C@H]6C(C)(C)C(=O)CC[C@@]67C[C@@]57CC[C@]34C)O2)OC1=O` [PSEUDOLAROLIDE B]: the EC50 result in the assay on TE-671 was “Not Active”; in the assay with HCT-8 (Homo sapiens, HCT-8, read-out: EC50) it was 0.73 µg/mL (≈ 1.56 µM); in the assay on P388 (Mus musculus, P388, read-out: EC50), 0.79 µg/mL (≈ 1.69 µM); with KB (Homo sapiens, KB, read-out: EC50) it was 0.49 µg/mL (≈ 1.05 µM); in the assay on A549 (Homo sapiens, A549, read-out: EC50), 0.67 µg/mL (≈ 1.44 µM). Further, the outcome in the assay on Human alphaherpesvirus 2 was Active.
